Results reported in patent US10294202B2, “Pyrrolidinones as herbicides” (FMC Corporation, priority 2013, dated 2019).

What was measured:
sedge, umbrella = experiment: Test B flooded paddy test; format: in vivo, Cyperus difformis; details: Flood, scale of 0 to 100 where 0 is no effect and 100 is complete control
Procedure, shortened: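 Visual ratings from 0, meaning no effect, up to 100, meaning complete control, were made by comparison with untreated controls 13 to 15 days after treatment. Test compounds went straight into floodwater standing 3 cm over the soil of pots holding 2-leaf seedlings.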

ragweed = experiment: Test C pre-/postemergence herbicide test; format: in vivo, Ambrosia elatior
Procedure, shortened: (§1)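 Herbicidal effect was judged by eye 13 to 15 days after treatment in the greenhouse, using a 0–100 scale against controls. Chemicals in a non-phytotoxic solvent with surfactant were sprayed onto planted loam/sand soil or onto plants 2 to 18 cm tall in a peat-based growing medium.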

crabgrass, large = experiment: Test C pre-/postemergence herbicide test; format: in vivo, Digitaria sanguinalis
Procedure, shortened: as §1

nutsedge, yellow = experiment: Test C pre-/postemergence herbicide test; format: in vivo, Cyperus esculentus
Procedure, shortened: as §1

johnsongrass = experiment: Test C pre-/postemergence herbicide test; format: in vivo, Sorghum halepense
Procedure, shortened: as §1

giant foxtail = experiment: Test A pre-/postemergence herbicide test; format: in vivo, Setaria faberii
Procedure, shortened: (§2)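 Both application timings used compounds in a non-phytotoxic solvent plus surfactant. Pre-emergence: soil sprayed directly after seeding into loam/sand. Post-emergence: foliage of 2–10 cm seedlings (1–2 leaves) sprayed. Injury rated ~10 days later, 0–100.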

wheat = experiment: Test A pre-/postemergence herbicide test; format: in vivo, Triticum aestivum
Procedure, shortened: as §2

blackgrass = experiment: Test C pre-/postemergence herbicide test; format: in vivo, Alopecurus myosuroides
Procedure, shortened: as §1

foxtail, giant = experiment: Test C pre-/postemergence herbicide test; format: in vivo, Setaria faberii
Procedure, shortened: as §1

pigweed = experiment: Test A pre-/postemergence herbicide test; format: in vivo, Amaranthus retroflexus
Procedure, shortened: as §2

ryegrass, Italian = experiment: Test C pre-/postemergence herbicide test; format: in vivo, Lolium multiflorum
Procedure, shortened: as §1

[1] = Postemergence, 16 g ai/ha, scale 0 to 100 (0 no effect, 100 complete control)
[2] = Postemergence, 31 g ai/ha, scale 0 (no effect) to 100 (complete control)
[3] = Postemergence, 62 g ai/ha, scale 0 to 100 (0 no effect, 100 complete control)
[4] = Postemergence, 125 g ai/ha, scale 0 to 100 (0 no effect, 100 complete control)
[5] = Preemergence, 62 g ai/ha, scale 0 to 100
[6] = Preemergence, 125 g ai/ha, scale 0 to 100 (0 no effect, 100 complete control)
[7] = Preemergence, 16 g ai/ha, scale 0 to 100
[8] = Preemergence, 31 g ai/ha, scale 0 to 100 (0 no effect, 100 complete control)
[9] = Postemergence, 125 g ai/ha, 0 to 100 scale, 0 no effect, 100 complete control
[10] = Postemergence, 500 g ai/ha, 0 to 100 scale (0 no effect, 100 complete control)
[11] = Preemergence, 125 g ai/ha, visual rating on 0 to 100 scale (0 no effect, 100 complete control)
[12] = preemergence, 500 g ai/ha, 0 to 100 scale
[13] = Preemergence, 62 g ai/ha, scale 0 to 100 (0 no effect, 100 complete control)
[14] = Preemergence, 125 g ai/ha, scale 0 to 100
[15] = Preemergence, 31 g ai/ha, scale 0 to 100, 0 is no effect and 100 is complete control
[16] = Postemergence, 125 g ai/ha, visual rating on 0 to 100 scale (0 no effect, 100 complete control), approx. 10 days
[17] = Preemergence, 125 g ai/ha, 0 to 100 scale where 0 is no effect and 100 is complete control
[18] = Preemergence, 500 g ai/ha, visual rating on 0 to 100 scale (0 no effect, 100 complete control)

## O=C1NCC(c2cc(F)c(F)c(F)c2)C1C(=O)Nc1cccc(F)c1F (centres unmarked) [Compound 48]
sedge, umbrella; 250 g ai/ha
  Plant response rating, Sedge, Umbrella: 60
ragweed; [1]
  Plant response rating, Ragweed: 0
ragweed; [2]
  Plant response rating, Ragweed: 5
ragweed; [3]
  Plant response rating, Ragweed: 5
ragweed; [4]
  Plant response rating, Ragweed: 35
ragweed; [5]
  Plant response rating, Ragweed: 10
ragweed; [6]
  Plant response rating, Ragweed: 10
ragweed; [7]
  Plant response rating, Ragweed: 0
crabgrass, large; [1]
  Plant response rating, Crabgrass, Large: 20
crabgrass, large; [2]
  Plant response rating, Crabgrass, Large: 40
crabgrass, large; [3]
  Plant response rating, Crabgrass, Large: 65
crabgrass, large; [4]
  Plant response rating, Crabgrass, Large: 75
crabgrass, large; [5]
  Plant response rating, Crabgrass, Large: 90
crabgrass, large; [6]
  Plant response rating, Crabgrass, Large: 95
crabgrass, large; [7]
  Plant response rating, Crabgrass, Large: 75
crabgrass, large; [8]
  Crabgrass, Large plant response rating: 85
nutsedge, yellow; [1]
  Plant response rating, Nutsedge, Yellow: 0
nutsedge, yellow; [2]
  Plant response rating, Nutsedge, Yellow: 0
nutsedge, yellow; [3]
  Plant response rating, Nutsedge, Yellow: 0
nutsedge, yellow; [4]
  Plant response rating, Nutsedge, Yellow: 0
nutsedge, yellow; [5]
  Plant response rating, Nutsedge, Yellow: 0
nutsedge, yellow; [6]
  Plant response rating, Nutsedge, Yellow: 20
nutsedge, yellow; [7]
  Plant response rating, Nutsedge, Yellow: 0
johnsongrass; [1]
  Plant response rating, Johnsongrass: 0
johnsongrass; [2]
  Plant response rating, Johnsongrass: 0
johnsongrass; [3]
  Plant response rating, Johnsongrass: 0
johnsongrass; [4]
  Plant response rating, Johnsongrass: 0
johnsongrass; [5]
  Plant response rating, Johnsongrass: 10
johnsongrass; [6]
  Plant response rating, Johnsongrass: 20
johnsongrass; [7]
  Plant response rating, Johnsongrass: 0
Giant foxtail; [9]
  Plant response rating, Foxtail, Giant: 80
Giant foxtail; [10]
  Plant response rating, Foxtail, Giant: 80
Giant foxtail; [11]
  Foxtail, Giant plant response rating: 80
Giant foxtail; [12]
  Plant response rating, Foxtail, Giant: 90
wheat; [9]
  Plant response rating, Wheat: 20
wheat; [10]
  Plant response rating, Wheat: 40
wheat; [11]
  Wheat plant response rating: 0
wheat; [12]
  Plant response rating, Wheat: 50
blackgrass; [1]
  Plant response rating, Blackgrass: 0
blackgrass; [2]
  Plant response rating, Blackgrass: 0
blackgrass; [3]
  Plant response rating, Blackgrass: 0
blackgrass; [4]
  Plant response rating, Blackgrass: 0
blackgrass; [5]
  Plant response rating, Blackgrass: 20
blackgrass; [6]
  Plant response rating, Blackgrass: 50
blackgrass; [7]
  Plant response rating, Blackgrass: 0
blackgrass; [8]
  Blackgrass plant response rating: 0
foxtail, giant; [1]
  Plant response rating, Foxtail, Giant: 0
foxtail, giant; [2]
  Plant response rating, Foxtail, Giant: 5
foxtail, giant; [3]
  Plant response rating, Foxtail, Giant: 20
foxtail, giant; [4]
  Plant response rating, Foxtail, Giant: 40
foxtail, giant; [5]
  Plant response rating, Foxtail, Giant: 85
foxtail, giant; [6]
  Plant response rating, Foxtail, Giant: 95
foxtail, giant; [7]
  Plant response rating, Foxtail, Giant: 40
foxtail, giant; [8]
  Foxtail, Giant plant response rating: 80
pigweed; [9]
  Plant response rating, Pigweed: 0
pigweed; [10]
  Plant response rating, Pigweed: 0
pigweed; [11]
  Pigweed plant response rating: 0
pigweed; [12]
  Plant response rating, Pigweed: 0
ryegrass, Italian; [1]
  Plant response rating, Ryegrass, Italian: 0
ryegrass, Italian; [2]
  Plant response rating, Ryegrass, Italian: 0
ryegrass, Italian; [3]
  Plant response rating, Ryegrass, Italian: 0
ryegrass, Italian; [4]
  Plant response rating, Ryegrass, Italian: 0
ryegrass, Italian; [5]
  Plant response rating, Ryegrass, Italian: 0
ryegrass, Italian; [6]
  Plant response rating, Ryegrass, Italian: 0
ryegrass, Italian; [7]
  Plant response rating, Ryegrass, Italian: 0

## O=C1NCC(c2cccc(C(F)(F)F)c2)C1C(=O)Nc1ccc(F)c(F)c1F (centres unmarked) [Compound 345]
sedge, umbrella; 1000 g ai/ha
  Plant response rating, Sedge, Umbrella: 0
ragweed; [13]
  Ragweed plant response rating: 40
ragweed; [14]
  Plant response rating, Ragweed: 15
crabgrass, large; [15]
  Crabgrass, Large plant response rating: 95
crabgrass, large; [13]
  Crabgrass, Large plant response rating: 98
crabgrass, large; [14]
  Plant response rating, Crabgrass, Large: 95
crabgrass, large; Preemergence, 250 g ai/ha
  Plant response rating (scale of 0 to 100), Crabgrass, Large: 98
nutsedge, yellow; [15]
  Nutsedge, Yellow plant response rating: 0
nutsedge, yellow; [13]
  Nutsedge, Yellow plant response rating: 0
nutsedge, yellow; [14]
  Plant response rating, Nutsedge, Yellow: 0
nutsedge, yellow; Preemergence, 250 g ai/ha
  Plant response rating (scale of 0 to 100), Nutsedge, Yellow: 0
johnsongrass; [15]
  Johnsongrass plant response rating: 35
johnsongrass; [13]
  Johnsongrass plant response rating: 75
johnsongrass; [14]
  Plant response rating, Johnsongrass: 85
johnsongrass; Preemergence, 250 g ai/ha
  Plant response rating (scale of 0 to 100), Johnsongrass: 90
Giant foxtail; [16]
  Plant response rating, Foxtail, Giant: 90
Giant foxtail; [10]
  Plant response rating, Foxtail, Giant: 90
Giant foxtail; [17]
  Plant response rating, Foxtail, Giant: 90
Giant foxtail; [18]
  Foxtail, Giant plant response rating: 90
wheat; [16]
  Plant response rating, Wheat: 50
blackgrass; [15]
  Blackgrass plant response rating: 50
blackgrass; [13]
  Blackgrass plant response rating: 50
blackgrass; [14]
  Plant response rating, Blackgrass: 90
blackgrass; Preemergence, 250 g ai/ha
  Plant response rating (scale of 0 to 100), Blackgrass: 90
foxtail, giant; [15]
  Foxtail, Giant plant response rating: 85
foxtail, giant; [13]
  Foxtail, Giant plant response rating: 90
foxtail, giant; [14]
  Plant response rating, Foxtail, Giant: 95
foxtail, giant; Preemergence, 250 g ai/ha
  Plant response rating (scale of 0 to 100), Foxtail, Giant: 98
pigweed; [16]
  Plant response rating, Pigweed: 20
pigweed; [17]
  Plant response rating, Pigweed: 0
pigweed; [18]
  Pigweed plant response rating: 70
ryegrass, Italian; [13]
  Ryegrass, Italian plant response rating: 45
ryegrass, Italian; [14]
  Plant response rating, Ryegrass, Italian: 10
